Measurements as given in ChEMBL document CHEMBL1151596, “7-Oxa[2.2.1]bicycloheptane-2,3-dicarboxylic acid derivatives as phosphatase inhibitors” (Bioorg Med Chem Lett, 1997).

How the values were obtained:
Jurkat = test: Effect on the transcription and release of IL-2 in a reporter-gene assay (RGA); format: functional, cell-based; settings: Homo sapiens
[1] = Compound was tested for inhibition of protein phosphatase 2B (PP2B, Calcineurin)
[2] = Compound was tested for inhibition of protein phosphatase 2A (PP2A)
[3] = Effect on the transcription and release of thymidine kinase in a reporter-gene assay (RGA); format: functional
T-cell = test: Compound was tested for inhibition of IL-2 secretion in mouse T cell line; format: functional, cell-based
[4] = Compound was tested for inhibition of […] ([…])

SMILES	IC50 (Jurkat)	Ki [1]	Ki [2]	IC50 [3]	IC50 (T-cell)	IC50 [2]	IC50 [4]
O=C(O)[C@@H]1[C@H](C(=O)O)[C@H]2CC[C@@H]1O2	> 100 µM	3.02 µM	0.17 µM	42 µM	–	–	–
CN(C)C(=O)[C@H]1[C@@H](C(=O)O)[C@@H]2CC[C@H]1O2	4.7 µM	2.78 µM	0.18 µM	100 µM	5 µM	–	–
CCOC(=O)[C@@H]1[C@H](C(=O)OCC)[C@H]2CC[C@@H]1O2	–	> 100 µM	–	–	–	–	–
COC(=O)[C@H]1[C@@H](C(=O)O)[C@@H]2CC[C@H]1O2 (single isomer, unassigned)	–	> 100 µM	–	–	–	–	–
C[C@@]12C(=O)OC(=O)[C@]1(C)[C@H]1CC[C@@H]2O1 [CANTHARIDIN]	–	10.8 µM	0.065 µM	–	–	–	–
C/C=C/C[C@@H](C)[C@@H](O)[C@H]1C(=O)N[C@@H](CC)C(=O)N(C)CC(=O)N(C)[C@@H](CC(C)C)C(=O)N[C@@H](C(C)C)C(=O)N(C)[C@@H](CC(C)C)C(=O)N[C@@H](C)C(=O)N[C@H](C)C(=O)N(C)[C@@H](CC(C)C)C(=O)N(C)[C@@H](CC(C)C)C(=O)N(C)[C@@H](C(C)C)C(=O)N1C [CYCLOSPORINE]	0.008 µM	–	–	–	–	–	–
O=C1OC(=O)[C@H]2[C@@H]1[C@@H]1CC[C@H]2O1 [DEMETHYL-CANTHARIDIN]	> 22 µM	3.33 µM	0.2 µM	100 µM	–	0.97 µM	5 µM
